Measured values: article PMC111503 (Malaria Journal, 2002)
Where two headings read alike, the source gives them in different places.

Experiments:
recombinant PfPP1 = recombinant PfPP1 (Plasmodium falciparum, UniProt Q8ILV1); experiment: biochemical; assay type: biochemical
PP1 = conditions: cited from earlier work
other phosphatases = conditions: cited from earlier work
PP2A = conditions: read-out: characteristic IC50; cited from earlier work
PP2B = conditions: cited from earlier work
[1] = read-out: IC50 for inhibition of PfPP1

O=P(O)(O)OP(=O)(O)O [pyrophosphate]
IC50 (recombinant PfPP1; [1]): 90 µM

CO[C@H]([C@H](O)CC(=O)[C@@H](C)[C@@H](O)CC[C@@H](C)[C@@H]1O[C@]2(CC[C@@H](C)[C@H](CC[C@H](C)C(C)=O)O2)CC[C@@H]1C)[C@H](OC(=O)C[C@@H](O)C1=C(C)C(=O)OC1=O)C(C)C [tautomycin]
IC50 (recombinant PfPP1): 0.0008 µM
effect on PP1 versus PP2A (PP1; PP1 and PP2A compared): nearly equally
inhibition of other phosphatases (other phosphatases): fails to inhibit

[F-].[Na+] [NaF]
IC50 (recombinant PfPP1; read-out: IC50 for inhibition of PfPP1, recombinant PfPP1, data not shown): 2500 µM

O=P(O)(O)O [inorganic orthophosphate]
IC50 (recombinant PfPP1; [1]): 10000 µM

C=C1[C@@H](O)[C@@H]2O[C@]3(CC[C@H](/C=C/[C@@H](C)[C@@H]4CC(C)=C[C@@]5(O[C@H](C[C@@](C)(O)C(=O)O)CC[C@H]5O)O4)O3)CC[C@H]2O[C@@H]1[C@@H](O)C[C@H](C)[C@H]1O[C@@]2(CCCCO2)CC[C@H]1C [OA, okadaic acid]
IC50 (recombinant PfPP1): 0.1 µM
IC50 (PP2A): 0.001 to 0.005 µM
IC50 (PP1; read-out: characteristic IC50): 0.02 to 0.08 µM
sensitivity of PP2B to toxin (PP2B): highly resistant
